Data from patent US6365634B1, “Naturally occurring compounds and their derivatives as cyclooxygenase 2 and/or 5-lipoxygenase inhibitors” (C-P Technology Limited Partnership, priority 1997, dated 2002).

Legend:
[1] = target: T1, rabbit reticulocyte 15-LO (Oryctolagus cuniculus, UniProt P12530); assay: 15-LO biochemical assay (15-HETE formation, TLC quantitation); conditions: for Percent Inhibition of 15-LO: negative = increased activity
T1 construct: 24.5 units of a rabbit reticulocyte 15-LO preparation; tissue Oxford Biochemicals; host or cells: rabbit reticulocytes
T1 sequence (P12530 1-663): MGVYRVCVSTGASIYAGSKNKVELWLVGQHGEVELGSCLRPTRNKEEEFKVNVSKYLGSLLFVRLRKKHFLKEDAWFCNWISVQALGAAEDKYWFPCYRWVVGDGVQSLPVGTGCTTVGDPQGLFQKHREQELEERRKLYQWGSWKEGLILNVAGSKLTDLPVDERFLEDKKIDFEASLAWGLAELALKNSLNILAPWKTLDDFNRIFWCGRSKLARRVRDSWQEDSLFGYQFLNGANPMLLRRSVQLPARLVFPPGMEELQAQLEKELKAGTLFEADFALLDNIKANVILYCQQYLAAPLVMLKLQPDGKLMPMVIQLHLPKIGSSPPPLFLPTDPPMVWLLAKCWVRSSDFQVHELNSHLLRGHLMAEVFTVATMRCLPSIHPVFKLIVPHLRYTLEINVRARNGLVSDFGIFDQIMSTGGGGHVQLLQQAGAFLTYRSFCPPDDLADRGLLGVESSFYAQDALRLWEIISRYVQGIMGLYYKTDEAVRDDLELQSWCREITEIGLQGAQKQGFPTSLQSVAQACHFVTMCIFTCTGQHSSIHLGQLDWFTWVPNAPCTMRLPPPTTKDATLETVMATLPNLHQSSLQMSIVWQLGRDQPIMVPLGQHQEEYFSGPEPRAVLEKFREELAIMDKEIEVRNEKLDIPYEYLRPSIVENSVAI
Procedure: The inhibitory activity of dehydroabietic acid methyl ester was assessed by performing biochemical assays that utilized 1) human recombinant COX II, 2) ovine COX I, and 3) rabbit reticulocyte 15-LO. In all biochemical assays dehydroabietic acid methyl ester and inhibitory control compounds were used at a final concentration of […]. The COX I and II biochemical assays have been previously described in this document (see COX I and II Assays Used to Test X-8 Fractions and Purified Compounds, Example 3). The 15-LO assay was done using a modified version of a previously reported method (Corey, E. J., Shih, C., and Cashman, J. R. (1983) Proc. Natl. Acad. Sci. v80, p3,581; Sigal, E., Grunberger, D., Cashman, J. R., Craik, C. S., Caughey, G. H., and Nadel, J. A. (1988) Biochem. Biophys. Res Comm. v150(1), p376). Briefly, 24.5 units of a rabbit reticulocyte 15-LO preparation (corresponding to 7 ug total protein)(Oxford Biochemicals) was placed in potassium phosphate buffer (10 mM, pH 6.0). Dehydroabietic acid methyl ester was added to give a final concentration of 250 uM. The reaction was initiated by the addition of ^3H-AA (50 uM final concentration) and maintained at 37° C., for 5 min. The reaction was stopped by the addition of ice-cold methanol containing NaCNBH3 (to reduce peroxides). A portion of each reaction solution was then separated via TLC (250 μm PK6F 60 Å silica gel preparative TLC plate, Whatman), co-spotted with AA and 15-HETE (a metabolic product of 15-LO) and developed in hexane/ether/acetic acid (50:50:1) to separate 15-HETE from AA (Rf=0.29 and 0.5, respectively). Bands on the TLC plates were then visualized by I2 and scraped for quantitation. As with the COX I and II assays, percent inhibition was calculated based on a comparison between incubations performed in the presence and absence of dehydroabietic acid methyl ester (see “Fractionation and Bioassay Analysis of Fractions Derived from Extract-8” above).

human keratinocytes = assay: Microscopic examination of treated keratinocyte cultures; assay type: cell-based
[2] = tested on: human keratinocyte LTB4 production; assay: Cell-based 5-LO assay: LTB4 production by cultured human keratinocytes (enzyme immunoassay); conditions: 5, 1.0, 0.2 and 0.04 uM, 24 hours, high calcium medium
Description: In addition to assessing the effect of dehydroabietic acid methyl ester on the production of PGE2 by human keratinocytes, the human keratinocyte culture system was also used to assess for the inhibition of LTB4 production. Keratinocytes have not been used as extensively as other cell types for 5-LO studies, however, human keratinocytes produce appreciable amounts of LTB4 and production of this eicosanoid by cultured keratinocytes is inhibited by known inhibitors of 5-LO (see FIG. 11). To assess for inhibition of LTB4 production, human keratinocytes were cultured as described above. Following introduction of the high calcium media, the identical dilution series of dehydroabietic acid methyl ester as described above in the PGE2 study was added to duplicate wells of keratinocytes. Twenty-four hours later culture media samples were removed from each well and the amount of LTB4 in each sample determined using an enzyme immunoassay specific for LTB4 (Cayman Chemical). As was done with the PGE2 assay described above, the percent inhibition was calculated based on a comparison between vehicle treated control cultures and cultures treated with dehydroabietic acid methyl ester or Rev 5901 (a specific 5-LO inhibitor; Cayman Chemical).

SMILES	Percent Inhibition of 15-LO ([1]; pure 4-cumylphenol, concentration not given) [%]	toxicity when treated cultures were examined microscopically (human keratinocytes)	increase of the enzymatic activity of 15-LO ([1]; 250 uM)	Percent Inhibition of 15-LO ([1]; final concentration of 250 uM) [%]	inhibition of LTB4 production by cultured human keratinocytes [2]
CC(C)(c1ccccc1)c1ccc(O)cc1 [4-Cumylphenol, 4-cumylphenol]	−40.0	lack of toxicity			
COC(=O)[C@]1(C)CCC[C@]2(C)c3ccc(C(C)C)cc3CC[C@@H]12 [Dehydroabietic acid methyl ester, dehydroabietic acid methyl ester]		lack of toxicity	over 93%	−93.6	inhibited the production of LTB4 by cultured human keratinocytes in a dose-dependent manner
